Each structure is given as a SMILES string. Non-standard residues stand in square brackets, D forms with d. Residues, ends and D or L forms follow the SMILES beside them. *: point of attachment. Asu = N[C@@H](CCCCCC(=O)O)C(=O)O; dPip = O=C(O)[C@H]1CCCCN1; NHOH = ON*

Test [1] has as its target T1, Histone deacetylase 3 (Homo sapiens, UniProt O15379). Nature of the test: Binding affinity to HDAC3 (unknown origin) assessed as residence time.
In test [2] the target is T2, Protein deacetylase HDAC6 (Homo sapiens) (UniProt Q9UBN7).
T2 sequence (whole entry): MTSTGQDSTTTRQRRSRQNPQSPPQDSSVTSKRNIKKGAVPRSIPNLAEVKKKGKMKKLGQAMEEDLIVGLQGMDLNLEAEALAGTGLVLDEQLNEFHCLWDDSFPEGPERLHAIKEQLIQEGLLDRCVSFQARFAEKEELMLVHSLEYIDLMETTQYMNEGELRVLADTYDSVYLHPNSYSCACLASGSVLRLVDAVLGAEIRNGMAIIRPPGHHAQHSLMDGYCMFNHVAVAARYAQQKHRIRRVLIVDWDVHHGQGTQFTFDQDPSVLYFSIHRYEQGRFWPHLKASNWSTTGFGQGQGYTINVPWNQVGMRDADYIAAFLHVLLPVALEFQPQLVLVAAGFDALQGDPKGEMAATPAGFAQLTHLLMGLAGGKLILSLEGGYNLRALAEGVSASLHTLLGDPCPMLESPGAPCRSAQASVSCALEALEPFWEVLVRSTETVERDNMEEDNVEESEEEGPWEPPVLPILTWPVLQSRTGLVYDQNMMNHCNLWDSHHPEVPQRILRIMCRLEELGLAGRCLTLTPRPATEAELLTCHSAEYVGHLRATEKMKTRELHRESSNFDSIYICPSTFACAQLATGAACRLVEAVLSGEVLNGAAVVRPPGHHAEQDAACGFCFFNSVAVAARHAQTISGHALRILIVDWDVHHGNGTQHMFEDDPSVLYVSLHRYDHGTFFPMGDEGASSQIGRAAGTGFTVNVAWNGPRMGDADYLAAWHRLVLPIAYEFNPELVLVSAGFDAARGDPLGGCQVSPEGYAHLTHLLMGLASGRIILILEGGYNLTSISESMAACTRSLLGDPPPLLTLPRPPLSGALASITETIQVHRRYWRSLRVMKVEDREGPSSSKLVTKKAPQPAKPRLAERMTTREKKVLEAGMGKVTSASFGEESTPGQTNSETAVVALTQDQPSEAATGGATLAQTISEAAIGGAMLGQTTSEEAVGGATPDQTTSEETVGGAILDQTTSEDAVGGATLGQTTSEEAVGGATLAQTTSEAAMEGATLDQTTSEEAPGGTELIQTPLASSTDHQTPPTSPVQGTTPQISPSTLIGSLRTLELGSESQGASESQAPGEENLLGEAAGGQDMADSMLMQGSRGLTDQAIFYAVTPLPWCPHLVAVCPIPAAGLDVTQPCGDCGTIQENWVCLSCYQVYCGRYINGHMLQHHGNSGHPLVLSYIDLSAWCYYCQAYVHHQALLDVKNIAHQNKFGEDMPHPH
Nature of the test: Binding affinity to recombinant human HDAC6 using Ac-Leu-Gly-Lys(Ac)-AMC as substrate assessed as residence time.

The next test addresses T3, Histone deacetylase 11 (Homo sapiens, UniProt Q96DB2).
T3 sequence (Q96DB2 whole entry): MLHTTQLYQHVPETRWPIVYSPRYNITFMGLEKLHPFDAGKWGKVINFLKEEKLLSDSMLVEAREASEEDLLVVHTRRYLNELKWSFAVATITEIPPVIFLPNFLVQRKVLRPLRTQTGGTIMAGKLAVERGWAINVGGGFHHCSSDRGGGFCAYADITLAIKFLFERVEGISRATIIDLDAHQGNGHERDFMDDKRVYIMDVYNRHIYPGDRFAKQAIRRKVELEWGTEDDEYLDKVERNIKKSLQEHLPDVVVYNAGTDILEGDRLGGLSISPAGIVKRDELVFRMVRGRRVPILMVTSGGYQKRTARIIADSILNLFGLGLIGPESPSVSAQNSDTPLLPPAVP
Nature of the test: Binding affinity to human HDAC11 assessed as inhibition constant (ki,1).

The target of test [3] is T4, Histone deacetylase 11 (Homo sapiens) (UniProt Q96DB2).
T4 sequence (whole entry): T3 sequence (Q96DB2 whole entry)
The test is described as follows: Binding affinity to human HDAC11 assessed as binding constant (k-2).

Test [4] deals with T5, Protein deacetylase HDAC6 (Homo sapiens, UniProt Q9UBN7).
T5 sequence (Q9UBN7 whole entry): T2 sequence (whole entry)
Nature of the test: Binding affinity to recombinant human HDAC6 using Ac-Leu-Gly-Lys(Ac)-AMC as substrate measured after 60 mins assessed as inhibition constant by fluorescence based assay.

A further test concerns the target Histone deacetylase 1 (Homo sapiens, UniProt Q13547). The test is described as follows: Binding affinity to HDAC1 (unknown origin) assessed as inhibition constant(ki,1).
The target of test [5] is T5, Protein deacetylase HDAC6. Nature of the test: Binding affinity to recombinant human HDAC6 using Ac-Leu-Gly-Lys(Ac)-AMC as substrate measured after 60 mins assessed as inhibition constant (ki,1) by fluorescence based assay.
Test [6] addresses T1, Histone deacetylase 3. The test is described as follows: Binding affinity to HDAC3 (unknown origin) assessed as binding constant(k-2).
Test [7] deals with T1, Histone deacetylase 3. Nature of the test: Binding affinity to HDAC3 (unknown origin) assessed as inhibition constant(ki,1).
For test [8], the target named is T1, Histone deacetylase 3. Nature of the test: Binding affinity to HDAC3 (unknown origin) assessed as inhibition constant.
The target of test [9] is T2, Protein deacetylase HDAC6 (Homo sapiens). The test is described as follows: Binding affinity to recombinant human HDAC6 using Ac-Leu-Gly-Lys(Ac)-AMC as substrate measured after 60 mins assessed as binding constant (k2) by fluorescence based assay.
The target is the same in test [10]. The test is described as follows: Binding affinity to recombinant human HDAC6 using Ac-Leu-Gly-Lys(Ac)-AMC as substrate measured after 60 mins assessed as binding constant (k-2) by fluorescence based assay.
The target of test [11] is T1, Histone deacetylase 3. Nature of the test: Binding affinity to HDAC3 (unknown origin) assessed as binding constant(k2).
Test [12] deals with T4, Histone deacetylase 11 (Homo sapiens). The test is described as follows: Binding affinity to human HDAC11 assessed as binding constant (k2).
In the next test the target is Histone deacetylase 2 (Homo sapiens, UniProt Q92769). The test is described as follows: Binding affinity to HDAC2 (unknown origin) assessed as inhibition constant(ki,1).
The target in test [13] is T2, Protein deacetylase HDAC6 (Homo sapiens). The test is described as follows: Binding affinity to N-terminal GST-tagged human full length HDAC6 expressed in baculovirus infected Sf9 cells using Fluor-de-Lys Green as substrate assessed as dissociation constant (koff) by jump dilution assay.
In test [14] the target is T5, Protein deacetylase HDAC6. The test is described as follows: Inhibition of N-terminal GST-tagged human full length HDAC6 expressed in baculovirus infected Sf9 cells using Fluor-de-Lys Green as substrate.
In test [15] the target is T5, Protein deacetylase HDAC6. Nature of the test: Binding affinity to N-terminal GST-tagged human full length HDAC6 expressed in baculovirus infected Sf9 cells using Fluor-de-Lys Green as substrate assessed as inhibition constant.
The target in test [16] is T2, Protein deacetylase HDAC6 (Homo sapiens). The test is described as follows: Binding affinity to N-terminal GST-tagged human full length HDAC6 expressed in baculovirus infected Sf9 cells using Fluor-de-Lys Green as substrate assessed as association constant (kon).
Test [17] shares this target. The test is described as follows: Binding affinity to N-terminal GST-tagged human full length HDAC6 expressed in baculovirus infected Sf9 cells using Fluor-de-Lys Green as substrate assessed as residence time.
The target is the same in test [18]. Nature of the test: Binding affinity to N-terminal GST-tagged human full length HDAC6 expressed in baculovirus infected Sf9 cells using Fluor-de-Lys Green as substrate assessed as residence time by jump dilution assay.
For test [19] the target is unchanged. Nature of the test: Binding affinity to N-terminal GST-tagged human full length HDAC6 expressed in baculovirus infected Sf9 cells using Fluor-de-Lys Green as substrate assessed as dissociation constant (koff).

T1 sequence (O15379 whole entry): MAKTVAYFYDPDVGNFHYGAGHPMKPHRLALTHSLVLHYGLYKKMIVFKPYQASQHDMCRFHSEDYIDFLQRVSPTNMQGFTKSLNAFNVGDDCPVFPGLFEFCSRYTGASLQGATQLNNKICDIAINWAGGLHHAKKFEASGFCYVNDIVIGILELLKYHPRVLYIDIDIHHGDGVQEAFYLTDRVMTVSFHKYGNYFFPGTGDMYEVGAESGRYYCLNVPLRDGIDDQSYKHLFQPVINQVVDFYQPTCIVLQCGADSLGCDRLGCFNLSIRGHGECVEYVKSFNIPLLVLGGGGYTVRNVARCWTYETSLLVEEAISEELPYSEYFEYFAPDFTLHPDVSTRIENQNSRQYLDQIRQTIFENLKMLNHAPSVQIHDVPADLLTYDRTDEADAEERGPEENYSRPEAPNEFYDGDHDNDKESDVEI
Chain of Histone deacetylase 2 (Q92769 whole entry): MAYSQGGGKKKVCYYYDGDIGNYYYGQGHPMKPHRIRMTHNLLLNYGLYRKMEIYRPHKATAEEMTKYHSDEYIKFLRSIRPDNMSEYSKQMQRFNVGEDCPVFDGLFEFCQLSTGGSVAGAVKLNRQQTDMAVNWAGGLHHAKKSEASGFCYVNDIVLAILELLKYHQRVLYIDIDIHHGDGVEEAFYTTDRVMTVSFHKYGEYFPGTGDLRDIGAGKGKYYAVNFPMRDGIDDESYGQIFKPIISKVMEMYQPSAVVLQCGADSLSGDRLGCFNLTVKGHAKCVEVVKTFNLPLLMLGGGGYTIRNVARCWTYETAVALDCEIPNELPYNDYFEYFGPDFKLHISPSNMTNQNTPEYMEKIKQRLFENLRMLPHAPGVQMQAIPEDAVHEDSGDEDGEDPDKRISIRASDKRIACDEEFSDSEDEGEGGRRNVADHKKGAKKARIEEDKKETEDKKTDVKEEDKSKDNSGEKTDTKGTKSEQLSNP
Chain of Histone deacetylase 1 (Q13547 whole entry): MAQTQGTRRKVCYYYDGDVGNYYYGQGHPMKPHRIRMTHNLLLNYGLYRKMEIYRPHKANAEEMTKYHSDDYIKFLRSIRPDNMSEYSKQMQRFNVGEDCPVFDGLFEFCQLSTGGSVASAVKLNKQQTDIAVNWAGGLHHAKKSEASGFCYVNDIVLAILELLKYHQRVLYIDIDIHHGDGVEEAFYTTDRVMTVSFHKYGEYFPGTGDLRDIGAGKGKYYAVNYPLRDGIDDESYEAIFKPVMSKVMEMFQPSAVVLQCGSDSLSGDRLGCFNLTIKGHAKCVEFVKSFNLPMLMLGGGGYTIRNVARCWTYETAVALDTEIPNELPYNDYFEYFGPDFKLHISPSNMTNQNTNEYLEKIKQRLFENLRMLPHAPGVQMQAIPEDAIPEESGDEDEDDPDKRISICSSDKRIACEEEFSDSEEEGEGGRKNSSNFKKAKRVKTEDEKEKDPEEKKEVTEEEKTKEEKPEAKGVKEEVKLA

As for `CC[C@H](C)[C@@H]1NC(=O)[C@H](Cc2c[nH]c3ccccc23)NC(=O)[C@H](CCCCCC(=O)NO)NC(=O)[C@H]2CCCCN2C1=O` (cyclo([Asu](NHOH)WI[dPip])), the TIME came out at 1.85 h on Histone deacetylase 3 [1] and 1.67 h in test [2]. In addition, the Ki (as a rule, the dissociation constant of the complex between target and ligand, obtained from inhibition or displacement) at Histone deacetylase 11 is 18 nM; in test [4], around 3.6 nM; on Histone deacetylase 1, 0.32 nM; in test [5] it was 23 nM; on Histone deacetylase 3 [7], 1.6 nM; on Histone deacetylase 3 [8] it was 0.04 nM. In addition, the inhibitory constant (Ki) at Histone deacetylase 2 was determined as 0.35 nM. In addition, the K is 0 min⁻¹ in test [3]; 0.009 min⁻¹ at Histone deacetylase 3 [6]; 0.17 min⁻¹ in test [9]; 0.01 min⁻¹ in test [10]; 0.158 min⁻¹ at Histone deacetylase 3 [11]; 0.73 min⁻¹ in test [12].

For the molecule `FC(F)c1nnc(-c2ccc(Cn3cc(-c4ccc(NC5N=CCN5)cc4)nn3)cc2)o1` (configuration not stated), the K in [13] was 3.3 10^-3/min; in test [16], 9.6 10^5/min/M; in test [19], 4.6 10^-3/min. Moreover, it took 7.7 nM to reach half-maximal inhibition in test [14] (IC50). The Ki in test [15] is 4.8 nM. Besides, the TIME in [17] turned out to be 3.6 h; in test [18] it was 5.1 h.

The record behind these values is ChEMBL document CHEMBL5321294, “Evolution of Slow-Binding Inhibitors Targeting Histone Deacetylase Isoforms” (J Med Chem, 2023).
